Target: T1, P. aeruginosa LpxC (Pseudomonas aeruginosa, UniProt P47205)
T1 construct: made in house
T1 sequence (P47205 1-303): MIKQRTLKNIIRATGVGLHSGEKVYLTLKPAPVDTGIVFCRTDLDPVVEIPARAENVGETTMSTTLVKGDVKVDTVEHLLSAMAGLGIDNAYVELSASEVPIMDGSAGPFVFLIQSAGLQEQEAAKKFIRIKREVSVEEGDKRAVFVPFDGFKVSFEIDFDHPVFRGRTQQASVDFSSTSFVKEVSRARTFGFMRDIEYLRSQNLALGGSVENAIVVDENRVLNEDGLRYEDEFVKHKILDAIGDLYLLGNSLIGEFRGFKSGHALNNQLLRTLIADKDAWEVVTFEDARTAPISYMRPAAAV
Experiment: biochemical
Details: 1 nM P. aeruginosa LpxC, 30 min pre-incubation, 2 μM UDP-3-O-(R-3-hydroxydecanoyl)-GlcNAc, pH 7.5, room temperature; read-out: IC50 (LpxC inhibitory activity)
Excerpt: The LC-MS/MS method for quantitation of LpxC product was developed using an Agilent 1200 Capillary HPLC system coupled to an Applied Biosystems MDS Sciex 4000QTRAP mass spectrometer. Both instruments are controlled using the Applied Biosystems MDS Sciex Analyst software. LpxC reaction product (UDP-3-O—(R-3-hydroxyacyl)-glucosamine) was produced by hydrolysis of LpxC substrate catalyzed by P. a. LpxC and purified using reversed phase chromatography on a Phenomenex Luna C18(2) 4.6×50 mm column. An LpxC product calibration curve was generated to evaluate the sensitivity and dynamic range of the LC-MS/MS method. Briefly, compounds are pre-incubated with 1 nM P. aeruginosa LpxC for 30 min. at room temperature. Reactions are initiated by the addition of 2 μM UDP-3-O—(R-3-hydroxydecanoyl)-GlcNAc. Reactions are conducted in a 96-well plate with a total volume of 100 μL in each well containing 50 mM Sodium phosphate pH 7.5, 0.005% Trition X-100 for 20 min at room temperature. After quenching with 1.8% HOAc (10 μL of a 20% HOAc added to each well), reaction mixtures are analyzed using the LC-MS/MS method and peak areas are transformed into product concentration using a LpxC product calibration curve. […] For IC50 determinations, peak areas are converted to percent inhibition in Microsoft Excel. Percent inhibition values are plotted vs. log compound concentration using XLfit. Data is fit to the four-parameter logistic equation using the non-linear regression algorithm in XLfit to return the IC50 and hill slope values.

Point of comparison: `CC(C)(N)[C@H](NC(=O)c1ccc(OCC#CC2=CCOCC2)cc1)C(=O)NO` [Example 12, N-((S)-2-Amino-1-hydroxycarbamoyl-2-methyl-propyl)-4-[3-(3,6-dihydro-2H-pyran-4-yl)-prop-2-ynyloxy]-benzamide], IC50 2 nM. Against it:
- CCC#CCOc1ccc(C(=O)N[C@H](C(=O)NO)[C@@H](C)N)cc1 [Example 19] — 3.8-fold higher, 7.6 nM
- CC(C)(N)C(NC(=O)c1ccc(OCC#CC2CCCC2)cc1)C(=O)NO (centres unmarked) [Example 45] — within 1.5-fold, 2.2 nM
- C[C@@H](N)[C@H](NC(=O)c1ccc(OCCCC2CC2)cc1)C(=O)NO [Example 50] — 6.5-fold higher, 13.1 nM
- CC(C)(C)C#C/C=C/COc1ccc(C(=O)N[C@H](C(=O)NO)C(C)(C)N)cc1 [Example 63] — 40-fold lower, 0.05 nM
- CC(C)(N)[C@H](NC(=O)c1ccc(OCC#CC2=CCC(O)CC2)cc1)C(=O)NO (some centres unmarked) [Example 76] — 67-fold lower, 0.03 nM
- CC#CCOC1CCC(C(=O)N[C@H](C(=O)NO)[C@@H](C)N)CC1 (single isomer, unassigned) [Example 7] — 190-fold higher, 380 nM
- CC(C)(N)[C@H](NC(=O)c1ccc(OCC#CC2CCC2)cc1)C(=O)NO [Example 81] — 67-fold lower, 0.03 nM
- C[C@@H](N)[C@H](NC(=O)c1ccc(OCC#Cc2ccccc2)cc1)C(=O)NO [Example 17] — 2-fold lower, 1 nM
- C[C@@H](N)[C@H](NC(=O)c1ccc(OCC#CC2CC2)cc1)C(=O)NO [Example 34] — 3-fold higher, 6 nM
- CC(C)(N)[C@H](NC(=O)c1ccc(OCC#Cc2cccc(CO)c2)cc1)C(=O)NO [Example 77] — 10-fold lower, 0.2 nM
- CCCC#CCOc1ccc(C(=O)N[C@H](C(=O)NO)[C@@H](C)N)cc1 [Example 23] — within 1.5-fold, 1.5 nM
- CC(C)(N)[C@H](NC(=O)c1ccc(OCC#CC2=CCCC2)cc1)C(=O)NO [Example 11, N-((S)-2-Amino-1-hydroxycarbamoyl-2-methyl-propyl)-4-(3-cyclopent-1-enyl-prop-2-ynyloxy)-benzamide] — 2-fold lower, 1 nM
- CC#CCOc1ccc(C(=O)NC(C(=O)NO)C(C)(C)N)cc1Cl (centres unmarked) [Example 55] — 5-fold higher, 9.9 nM
- CC(C)(N)[C@H](NC(=O)c1ccc(OCC#CC2=CCNCC2)cc1)C(=O)NO [Example 62] — 7-fold higher, 14 nM
- COCC#CCOc1ccc(C(=O)N[C@H](C(=O)NO)[C@@H](C)N)cc1 [Example 44] — 28-fold higher, 56.9 nM
- CC(C)(O)C#CCOc1ccc(C(=O)NC(C(=O)NO)C(C)(C)N)cc1 (centres unmarked) [Example 8, N-(3-amino-1-(hydroxyamino)-3-methyl-1-oxobutan-2-yl)-4-(4-hydroxy-4-methylpent-2-ynyloxy)benzamide] — 92-fold higher, 183 nM
- CCCCC#C/C=C/COc1ccc(C(=O)N[C@H](C(=O)NO)C(C)(C)N)cc1 [Example 64] — 10-fold lower, 0.2 nM
- CC(C)(N)[C@H](NC(=O)c1ccc(OCC#Cc2ccc(O)cc2)cc1)C(=O)NO [Example 68] — 950-fold higher, 1900 nM

Same assay, conditions: IC50 (LpxC inhibitory activity), 1 nM P. aeruginosa LpxC, 30 min pre-incubation, 2 μM UDP-3-O-(R-3-hydroxydecanoyl)-GlcNAc, pH 7.5, room temperature

Work on `CC#CCOc1ccc(C(=O)N[C@H](C(=O)NO)[C@@H](N)C(F)(F)F)cc1` [Example 6, N-((2S,3R)-3-amino-4,4,4-trifluoro-1-(hydroxyamino)-1-oxobutan-2-yl)-4-(but-2-ynyloxy)benzamide] yielded an IC50 of 13.5 nM.

Reference: patent US8372885B2, “Organic compounds and their uses” (Novartis AG, priority 2008, dated 2013)
